Measurements reported in ChEMBL document CHEMBL3864140, “Melanogenesis inhibitory activity of a 7-O-9'-linked neolignan from Alpinia galanga fruit” (Bioorg Med Chem, 2016).

Tests used:
[1] = Antimelanogenic activity in theophylline-stimulated mouse B16-4A5 cells assessed as inhibition of melanogenesis at 3 uM after 72 hrs relative to control; type: functional; conditions: B16-4A5, 72 h
[2] = Cytotoxicity against theophylline-stimulated mouse B16-4A5 cells assessed as cell viability at 3 uM after 72 hrs by MTT assay relative to control; type: toxicity; conditions: theophylline-stimulated B16-4A5 cells, read-out: Activity
[3] = Cytotoxicity against theophylline-stimulated mouse B16-4A5 cells assessed as cell viability at 100 uM after 72 hrs by MTT assay relative to control; type: toxicity; conditions: theophylline-stimulated B16-4A5 cells, read-out: Activity
[4] = Antimelanogenic activity in theophylline-stimulated mouse B16-4A5 cells assessed as inhibition of melanogenesis at 10 uM after 72 hrs relative to control; type: functional; conditions: B16-4A5, 72 h
cells [5] = conditions: Mus musculus, B16-4A5, 72 h, read-out: INH
Description: Antimelanogenic activity in theophylline-stimulated mouse B16-4A5 cells assessed as inhibition of melanogenesis at 30 uM after 72 hrs relative to control

[6] = Antimelanogenic activity in theophylline-stimulated mouse B16-4A5 cells assessed as inhibition of melanogenesis after 72 hrs relative to control; type: functional, cell-based
[7] = Cytotoxicity against theophylline-stimulated mouse B16-4A5 cells assessed as cell viability at 10 uM after 72 hrs by MTT assay relative to control; type: toxicity; conditions: theophylline-stimulated B16-4A5 cells, read-out: Activity
cells [8] = conditions: Mus musculus, B16-4A5, 72 h, read-out: INH; remark: listed apart in the source
[9] = Cytotoxicity against theophylline-stimulated mouse B16-4A5 cells assessed as cell viability at 30 uM after 72 hrs by MTT assay relative to control; type: toxicity; conditions: theophylline-stimulated B16-4A5 cells, read-out: Activity
[10] = Antimelanogenic activity in theophylline-stimulated mouse B16-4A5 cells assessed as inhibition of melanogenesis at 1 uM after 72 hrs relative to control; type: functional; conditions: B16-4A5, 72 h
[11] = Antimelanogenic activity in theophylline-stimulated mouse B16-4A5 cells assessed as inhibition of melanogenesis at 0.3 uM after 72 hrs relative to control; type: functional; conditions: B16-4A5, 72 h
[12] = Cytotoxicity against theophylline-stimulated mouse B16-4A5 cells assessed as cell viability at 1 uM after 72 hrs by MTT assay relative to control; type: toxicity; conditions: theophylline-stimulated B16-4A5 cells, read-out: Activity
[13] = Cytotoxicity against theophylline-stimulated mouse B16-4A5 cells assessed as cell viability at 0.3 uM after 72 hrs by MTT assay relative to control; type: toxicity; conditions: theophylline-stimulated B16-4A5 cells, read-out: Activity

C=C[C@H](O)c1ccc(OC(C)=O)cc1
inhibition at 3 µM [1]: -6.7%
viability at 72 h, 3 µM [2]: 87.9%
viability at 72 h, 100 µM [3]: 114%
inhibition at 10 µM [4]: -0.4%
inhibition at 30 µM (cells [5]): 14.9%
IC50 [6]: 88.5 µM
viability at 72 h, 10 µM [7]: 97.2%
inhibition at 100 µM (cells [8]): 56.7%
viability at 72 h, 30 µM [9]: 101%

C=C[C@H](O)c1ccc(OC(C)=O)c(OC)c1
inhibition at 3 µM [1]: 5%
viability at 72 h, 3 µM [2]: 104%
viability at 72 h, 100 µM [3]: 124%
inhibition at 10 µM [4]: 10.9%
inhibition at 30 µM (cells [5]): 11.7%
viability at 72 h, 10 µM [7]: 114%
inhibition at 100 µM (cells [8]): 22.9%
viability at 72 h, 30 µM [9]: 113%

COC/C=C/c1ccc(O)cc1
inhibition at 3 µM [1]: 18.2%
viability at 72 h, 3 µM [2]: 109%
viability at 72 h, 100 µM [3]: 107%
inhibition at 10 µM [4]: 25.1%
inhibition at 30 µM (cells [5]): 56.9%
IC50 [6]: 19.5 µM
viability at 72 h, 10 µM [7]: 104%
inhibition at 100 µM (cells [8]): 81.7%
viability at 72 h, 30 µM [9]: 93.6%

O=C/C=C/c1ccc(O)cc1 [p-HYDROXYCINNAMALDEHYDE]
inhibition at 3 µM [1]: 8.9%
viability at 72 h, 3 µM [2]: 103%
viability at 72 h, 100 µM [3]: 66.8%
inhibition at 10 µM [4]: 12.8%
inhibition at 30 µM (cells [5]): 67.4%
IC50 [6]: 18.3 µM
viability at 72 h, 10 µM [7]: 108%
inhibition at 100 µM (cells [8]): 104%
viability at 72 h, 30 µM [9]: 94.3%

CC[C@H](OC(C)=O)c1ccc(OC(C)=O)cc1
inhibition at 3 µM [1]: 41.6%
viability at 72 h, 3 µM [2]: 106%
viability at 72 h, 100 µM [3]: 94.5%
inhibition at 10 µM [4]: 44.5%
inhibition at 30 µM (cells [5]): 74.1%
IC50 [6]: 10.5 µM
viability at 72 h, 10 µM [7]: 105%
inhibition at 100 µM (cells [8]): 105%
viability at 72 h, 30 µM [9]: 96.5%

CCC(=O)c1ccc(O)cc1 [PAROXYPROPIONE]
inhibition at 3 µM [1]: 4.1%
viability at 72 h, 3 µM [2]: 111%
viability at 72 h, 100 µM [3]: 125%
inhibition at 10 µM [4]: -3.6%
inhibition at 30 µM (cells [5]): -1.9%
viability at 72 h, 10 µM [7]: 116%
inhibition at 100 µM (cells [8]): -3.6%
viability at 72 h, 30 µM [9]: 117%

O=Cc1ccc(O)cc1 [4-HYDROXYBENZALDEHYDE]
inhibition at 3 µM [1]: 11.3%
viability at 72 h, 3 µM [2]: 107%
viability at 72 h, 100 µM [3]: 103%
inhibition at 10 µM [4]: 4.2%
inhibition at 30 µM (cells [5]): 7.9%
viability at 72 h, 10 µM [7]: 103%
inhibition at 100 µM (cells [8]): 3.5%
viability at 72 h, 30 µM [9]: 107%

COc1cc(/C=C/C=O)ccc1O [CONIFERYL ALDEHYDE]
inhibition at 3 µM [1]: 17%
viability at 72 h, 3 µM [2]: 101%
viability at 72 h, 100 µM [3]: 44.7%
inhibition at 10 µM [4]: 23.7%
inhibition at 30 µM (cells [5]): 100%
IC50 [6]: 15.3 µM
viability at 72 h, 10 µM [7]: 85.8%
inhibition at 100 µM (cells [8]): 87.7%
viability at 72 h, 30 µM [9]: 74.2%

C=C[C@H](OC/C=C/c1ccc(O)cc1)c1ccc(O)cc1
inhibition at 1 µM [10]: 46.4%
inhibition at 3 µM [1]: 46.4%
viability at 72 h, 3 µM [2]: 120%
inhibition at 10 µM [4]: 70.5%
inhibition at 0.3 µM [11]: 40.4%
IC50 [6]: 3.3 µM
viability at 72 h, 10 µM [7]: 114%
viability at 72 h, 1 µM [12]: 119%
viability at 72 h, 0.3 µM [13]: 111%

COc1cc(/C=C/CO)ccc1O [CONIFERYL ALCOHOL]
inhibition at 3 µM [1]: 35.9%
viability at 72 h, 3 µM [2]: 98.9%
viability at 72 h, 100 µM [3]: 33.1%
inhibition at 10 µM [4]: 44.5%
inhibition at 30 µM (cells [5]): 64.2%
IC50 [6]: 16.1 µM
viability at 72 h, 10 µM [7]: 98.2%
inhibition at 100 µM (cells [8]): -3%
viability at 72 h, 30 µM [9]: 88%

C=C[C@@H](OC/C=C/c1ccc(O)cc1)c1ccc(O)cc1
inhibition at 1 µM [10]: 47.1%
inhibition at 3 µM [1]: 47.7%
viability at 72 h, 3 µM [2]: 103%
inhibition at 10 µM [4]: 80.2%
inhibition at 0.3 µM [11]: 32.9%
IC50 [6]: 3.2 µM
viability at 72 h, 10 µM [7]: 93.9%
viability at 72 h, 1 µM [12]: 107%
viability at 72 h, 0.3 µM [13]: 106%

C=CC(OC/C=C/c1ccc(O)cc1)c1ccc(O)cc1 (racemic)
inhibition at 1 µM [10]: 43.6%
inhibition at 3 µM [1]: 50.9%
viability at 72 h, 3 µM [2]: 104%
inhibition at 10 µM [4]: 77.4%
inhibition at 0.3 µM [11]: 26.7%
IC50 [6]: 3 µM
viability at 72 h, 10 µM [7]: 105%
viability at 72 h, 1 µM [12]: 95.1%
viability at 72 h, 0.3 µM [13]: 102%

CC(=O)Oc1ccc(/C=C/CO)cc1
inhibition at 3 µM [1]: 10.7%
viability at 72 h, 3 µM [2]: 92.9%
viability at 72 h, 100 µM [3]: 44.9%
inhibition at 10 µM [4]: 18%
inhibition at 30 µM (cells [5]): 96.9%
IC50 [6]: 29.4 µM
viability at 72 h, 10 µM [7]: 85.8%
inhibition at 100 µM (cells [8]): 94.8%
viability at 72 h, 30 µM [9]: 65.5%

C=C[C@@H](OC(C)=O)c1ccc(OC(C)=O)cc1
inhibition at 1 µM [10]: 21.2%
inhibition at 3 µM [1]: 36.8%
viability at 72 h, 3 µM [2]: 95.2%
inhibition at 10 µM [4]: 69.2%
inhibition at 0.3 µM [11]: 8.4%
IC50 [6]: 4.5 µM
viability at 72 h, 10 µM [7]: 88.7%
viability at 72 h, 1 µM [12]: 98.8%
viability at 72 h, 0.3 µM [13]: 96.6%

C=CC(OC(C)=O)c1ccc(OC(C)=O)cc1 (racemic)
inhibition at 1 µM [10]: 4.4%
inhibition at 3 µM [1]: 35.1%
viability at 72 h, 3 µM [2]: 108%
inhibition at 10 µM [4]: 103%
inhibition at 0.3 µM [11]: 5%
IC50 [6]: 4.4 µM
viability at 72 h, 10 µM [7]: 31.8%
viability at 72 h, 1 µM [12]: 104%
viability at 72 h, 0.3 µM [13]: 102%

CC(=O)OC/C=C/c1ccc(O)cc1
inhibition at 3 µM [1]: 4.1%
viability at 72 h, 3 µM [2]: 99.2%
viability at 72 h, 100 µM [3]: 90.1%
inhibition at 10 µM [4]: 0%
inhibition at 30 µM (cells [5]): -3%
viability at 72 h, 10 µM [7]: 100%
inhibition at 100 µM (cells [8]): -13.4%
viability at 72 h, 30 µM [9]: 96.1%

COc1cc(/C=C/CO)ccc1OC(C)=O
inhibition at 3 µM [1]: 5.5%
viability at 72 h, 3 µM [2]: 90.6%
viability at 72 h, 100 µM [3]: 41.7%
inhibition at 10 µM [4]: 12.9%
inhibition at 30 µM (cells [5]): 102%
IC50 [6]: 16.9 µM
viability at 72 h, 10 µM [7]: 85.9%
inhibition at 100 µM (cells [8]): 63.3%
viability at 72 h, 30 µM [9]: 60.1%

COc1cc(C=O)ccc1O [VANILLIN]
inhibition at 3 µM [1]: -8.4%
viability at 72 h, 3 µM [2]: 108%
viability at 72 h, 100 µM [3]: 106%
inhibition at 10 µM [4]: 8.4%
inhibition at 30 µM (cells [5]): 49.7%
IC50 [6]: 49.2 µM
viability at 72 h, 10 µM [7]: 104%
inhibition at 100 µM (cells [8]): 96.1%
viability at 72 h, 30 µM [9]: 104%

OC/C=C/c1ccc(O)cc1
inhibition at 3 µM [1]: -3.4%
viability at 72 h, 3 µM [2]: 98.9%
viability at 72 h, 100 µM [3]: 110%
inhibition at 10 µM [4]: -2.8%
inhibition at 30 µM (cells [5]): 35.8%
IC50 [6]: > 100 µM
viability at 72 h, 10 µM [7]: 98.4%
inhibition at 100 µM (cells [8]): 46.9%
viability at 72 h, 30 µM [9]: 116%
